According to US4883869A, “Novel beta-lactams containing amino acid substituents” (The Upjohn Company, priority 1988, dated 1989):
Structures can show the parent of a compound that is named as a salt.

Assays:
Experiment in all cases: Minimum inhibitory concentration by agar dilution, Mueller Hinton Agar (NCCLS M7-A)
Format in all cases: cell-based
Citrobacter freundii = details: Culture No. 3507, MHA, 35° C., 20 hours
Protocol: (§1) The compounds of this invention and their respective pharmaceutically acceptable salts have antibiotic activity against a variety of gram-negative bacteria including Escherichia coli, Klebsiella pneumoniae, and Pseudomonas aeruginosa. The compounds are useful for treating bacterial infections in animals, including and most preferably humans. Compounds of the invention are tested for in vitro antimicrobial activity using standard testing procedures such as the determination of minimum inhibitory concentration (MIC) by methods described in "Methods for Dilution Antimicrobial Susceptibility Tests for Bacteria That Grow Aerobically" (M7-A) Published December 1985 by the National Committee for Clinical Laboratory Standards, 771 East Lancaster Avenue, Villanova, PA 19084. Briefly, MIC values are determined in unsupplemented Mueller Hinton Agar (MHA). The compounds tested are diluted serially into molten MHA at 47° C. The agar is poured into petri dishes and allowed to harden. The various bacteria used for testing are grown overnight on MHA at 35° C. and transferred to Tryptiease Soy Broth (TSB) until a turbidity of 0.5 McFarland standard is obtained. The bacteria are diluted one to twenty in TSB and inoculated on the plates (1 μl using a Steers replicator).

Enterobacter cloacae = details: 20 h, 35° C.
Protocol: as §1

Escherichia coli = details: 20 h, 35° C.
Protocol: as §1

Klebsiella oxytoca = details: 20 h, 35° C.
Protocol: as §1

Klebsiella pneumoniae = details: Culture No. 58, MHA, 35° C., 20 hours
Protocol: as §1

Proteus vulgaris = details: Culture No. 9679, MHA, 35° C., 20 hours
Protocol: as §1

Pseudomonas aeruginosa = details: 20 h, 35° C.
Protocol: as §1

Serratia marcescens = details: Culture No. 6888, MHA, 35° C., 20 hours
Protocol: as §1

Staphylococcus aureus = details: MHA, 35° C., 20 hours; for MIC: Staphylococcus aureus, Culture No. 6675
Protocol: as §1

Streptococcus faecalis = details: Enterococcus faecalis; Culture No. 694; MHA, 35° C., 20 hours
Protocol: as §1

Streptococcus pneumoniae = details: Culture No. 41, MHA, 35° C., 20 hours
Protocol: as §1

Streptococcus pyogenes = details: Culture No. 152, MHA, 35° C., 20 hours
Protocol: as §1

MIC (Citrobacter freundii) | MIC (Enterobacter cloacae; Culture No. 9381, MHA) | MIC (Enterobacter cloacae; Culture No. 9382, MHA) | MIC (Escherichia coli; Culture No. 311, MHA) | MIC (Escherichia coli; Culture No. 9379, MHA) | MIC (Escherichia coli; Culture No. 9380, MHA) | MIC (Klebsiella oxytoca; Culture No. 9383, MHA) | MIC (Klebsiella oxytoca; Culture No. 9384, MHA) | MIC (Klebsiella pneumoniae) | MIC (Proteus vulgaris) | MIC (Pseudomonas aeruginosa; Culture No. 6432, MHA) | MIC (Pseudomonas aeruginosa; Culture No. 6676, MHA) | MIC (Pseudomonas aeruginosa; Culture No. 9191, MHA) | MIC (Pseudomonas aeruginosa; Culture No. 30133, MHA) | MIC (Serratia marcescens) | MIC (Staphylococcus aureus) | MIC (Streptococcus faecalis) | MIC (Streptococcus pneumoniae) | SMILES | Minimum Inhibitory Concentration (Staphylococcus aureus; Culture No. 3665) | Minimum Inhibitory Concentration (Staphylococcus aureus; Culture No. 6685) | further results
0.125 µg/mL | 64 µg/mL | 0.125 µg/mL | 0.06 µg/mL | 0.125 µg/mL | 0.25 µg/mL | 0.5 µg/mL | 0.06 µg/mL | 0.06 µg/mL | < 0.03 µg/mL | 8 µg/mL | 4 µg/mL | 4 µg/mL | 8 µg/mL | 0.25 µg/mL | > 128 µg/mL | > 128 µg/mL | 64 µg/mL | Nc1nc(C(=NOCC(=O)O)C(=O)NC2C(=O)N(S(=O)(=O)O)C2COC(=O)CNC=O)cs1 (mixture of isomers) [Compound 7, Cis-(±)-[2'-(2"-amino-4"-thiazolyl)-(Z)-2'-(1"-carboxymethoxy)imino]acetamido-4-[N-formylglycinoyloxymethyl]-2-oxo-1-azetidinesulfonic acid monopotassium salt] | > 128 MCG per ML | > 128 MCG per ML | MIC (Escherichia coli; Culture No. 9451, MHA): 0.125 µg/mL; MIC (Streptococcus pyogenes): 16 µg/mL
0.25 µg/mL | 64 µg/mL | 0.25 µg/mL | 0.125 µg/mL | 0.25 µg/mL | 0.25 µg/mL | 1 µg/mL | 0.125 µg/mL | 0.125 µg/mL | 0.125 µg/mL | 64 µg/mL | 8 µg/mL | 8 µg/mL | 16 µg/mL | 0.5 µg/mL | > 128 µg/mL | > 128 µg/mL | 128 µg/mL | NCC(=O)OCC1C(NC(=O)C(=NOCC(=O)O)c2csc(N)n2)C(=O)N1S(=O)(=O)O (mixture of isomers) [Compound 11, Cis-(±)-3-[[2'-(2"-amino-4"-thiazolyl)-(Z)-2'-(1'"-carboxymethoxy)imino]acetamido]-4-[N-glycinoyloxymethyl]-2-oxo-1-azetidinesulfonic acid] | > 128 MCG per ML | > 128 MCG per ML | MIC (Streptococcus pyogenes): 16 µg/mL
